As usually defined, the IC50 is the midpoint of a concentration-inhibition curve. One may read the TD50 as the 50% point of the dose-response relation for the toxic effect studied. A high value points to harm only at a large dose.

Consider three compounds from patent US8372844B2, “Piperazinyl-propyl-pyrazole derivatives as dopamine D4 receptor antagonists, and pharmaceutical compositions containing the same” (Korea Research Institute of Chemical Technology, priority 2007, dated 2013).

Series [1] concerns apomorphine-induced cage climbing in mice. The experiment in a line: Apomorphine-induced climbing behavior in mice. Type of series: in vivo. The settings on record: ip 30 min prior to apomorphine (1 mg/kg, sc); for ED50: Mus musculus, read-out: Inhibitory effects on apomorphine-induced climbing behavior ED50 (mg/kg, ip). The method, then: When mice were treated with apomorphine (1 mg/kg, sc), a potent dopamine receptor agonist, and were put into cylindrical cages (diameter, 12 cm/height, 14 cm) with the floor and wall consisting of metal bars and covered with a lid, they begin to perform repeatedly a psychotic behavior of ‘cage climbing’. Their climbing behaviors were monitored every 10 min for 30 min and scored by 4-point rating scale (0˜3 points) depending on the extent of the behavior (Costentin, J. et al., Nature 1975, 257, 405-7; Protais, P. et al., Psychopharmacology 1976, 50, 1-6).
The compounds were injected intraperitoneally into mice 30 min prior to apomorphine administration. The inhibitory effects of the compounds against control group were measured and each ED50 was calculated therefrom.

In series [2] the test system is rotarod deficit in mice. As to the kind of experiment: Rotarod deficit in mice. Type of series: in vivo. Conditions: ip. Here is the method:
(§1) Each mouse was administered with a test drug, and then placed on a 1 inch diameter knurled plastic rod rotating at 6 rpm (Ugo-Basile, Milano, Italy), and the rotarod deficit (%) was obtained by counting the number of mice fallen from the rotating rod within 1 min at 30, 60, 90, and 120 min after the administration of the drug.
In general terms: Falling from the rotarod earlier than controls is read as motor impairment.

The target of series [3] is T1, human recombinant dopamine D4.2 receptor (Homo sapiens, UniProt P21917, DEL265-296).
T1 construct: purchased PerkinElmer Life and Analytical Sciences, USA; host or cells: CHO-K1 cells
T1 sequence (P21917 with tags, fused parts or gaps DEL265-296): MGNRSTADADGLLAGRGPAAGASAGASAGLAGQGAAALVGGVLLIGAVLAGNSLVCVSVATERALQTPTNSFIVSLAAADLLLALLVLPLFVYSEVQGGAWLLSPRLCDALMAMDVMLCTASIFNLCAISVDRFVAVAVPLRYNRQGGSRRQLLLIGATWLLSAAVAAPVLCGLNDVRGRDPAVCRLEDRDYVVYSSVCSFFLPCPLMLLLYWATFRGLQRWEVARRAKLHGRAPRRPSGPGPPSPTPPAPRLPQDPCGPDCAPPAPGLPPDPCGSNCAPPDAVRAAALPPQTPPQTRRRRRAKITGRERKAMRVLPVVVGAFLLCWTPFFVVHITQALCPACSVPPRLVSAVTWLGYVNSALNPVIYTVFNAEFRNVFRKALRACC
As to the kind of experiment: Measurement of affinity for dopamine D4 receptor ([3H]YM-09151-2 binding). Conditions: [3H]YM-09151-2 0.1 nM, receptor expressed in CHO-K1 cells, 120 min at 25° C. The method, then:
The affinities of the compounds for dopamine D4 receptor were measured by using human recombinant dopamine D4.2 receptor (PerkinElmer Life and Analytical Sciences, USA) expressed in CHO-K1 cells, and [^3H]YM-09151-2 (PerkinElmer) was used as a radioactive ligand.
50 mM Tris-HCl (pH 7.4) containing 120 mM NaCl, 5 mM KCl, 5 mM MgCl2 and 1 mM EDTA was used as a buffer solution for the analysis of receptor binding. [^3H] YM-09151-2 binding reactions were performed in a 96-well plate format.
For drug screening, a reaction mixture with a final volume of 0.25 mL was prepared by mixing a compound of the present invention, D4 receptor membrane (43 μg/well), [^3H] YM-09151-2 (0.1 nM), 50 mM Tris-HCl (pH 7.4) and the like. The reaction mixture was incubated for 120 min at 25° C., and then promptly passed through Wallac GF/C glass fiber filter (Wallac, Finland), which was already wetted in 0.5% PEI, by using Inotech harvester (Inotech) to terminate the reaction, and then washed with cold 50 mM Tris-HCl buffer solution. The filter was then covered with MeltiLex, sealed in a sample bag, and then dried in an oven. The radioactivity retained in the filter was finally counted using MicroBeta Plus, Wallac.
The affinity (IC50) of a compound for the receptor was calculated via nonlinear regression analysis of sigmoidal dose-response equation with the data obtained from three independent experiments (GraphPad Prism Program, San Diego, USA), which are carried out using 7-8 different concentrations of the compound in duplicate. Nonspecific binding was measured in the presence of 10 μM clozapine.

For series [4], the target named is T2, Human recombinant dopamine D2 receptor (Homo sapiens, UniProt P14416).
T2 construct: purchased PerkinElmer; host or cells: CHO cell line
T2 sequence (P14416 whole entry): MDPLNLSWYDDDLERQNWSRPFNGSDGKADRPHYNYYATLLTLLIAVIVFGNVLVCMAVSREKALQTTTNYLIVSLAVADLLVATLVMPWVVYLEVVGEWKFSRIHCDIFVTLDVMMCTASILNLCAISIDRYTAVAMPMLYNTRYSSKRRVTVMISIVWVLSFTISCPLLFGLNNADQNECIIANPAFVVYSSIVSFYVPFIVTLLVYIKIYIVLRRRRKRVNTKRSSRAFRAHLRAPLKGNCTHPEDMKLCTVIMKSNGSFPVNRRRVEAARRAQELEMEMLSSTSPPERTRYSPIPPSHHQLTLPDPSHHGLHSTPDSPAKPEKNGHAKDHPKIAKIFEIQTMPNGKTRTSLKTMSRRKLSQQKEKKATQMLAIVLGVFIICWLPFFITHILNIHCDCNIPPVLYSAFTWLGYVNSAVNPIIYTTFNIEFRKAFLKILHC
The experiment in a line: Measurement of affinity for dopamine D2 receptor ([3H]spiperone binding). Here is the method:
(§2) Human recombinant dopamine D2 and D3 receptors, which were expressed in CHO cell lines, respectively, were purchased from PerkinElmer and Euroscreen, respectively.
(§3) 50 mM Tris-HCl (pH 7.4) containing […] and 1 mM EDTA was used as a buffer solution for the measurement of affinity for dopamine D2 receptor. 50 mM Tris-HCl (pH 7.4) containing 5 mM MgCl2, 5 mM EDTA, 5 mM KCl, 1.5 mM CaCl2 and 120 mM NaCl was used as a buffer solution for the measurement of affinity for dopamine D3 receptor. For measurement of non-specific binding, 10 μM haloperidol (haloperidol) was used.

Series [5] deals with T3, Human recombinant dopamine D3 receptor (Homo sapiens, UniProt P35462).
T3 construct: purchased Euroscreen; host or cells: CHO cell line
T3 sequence (P35462 whole entry): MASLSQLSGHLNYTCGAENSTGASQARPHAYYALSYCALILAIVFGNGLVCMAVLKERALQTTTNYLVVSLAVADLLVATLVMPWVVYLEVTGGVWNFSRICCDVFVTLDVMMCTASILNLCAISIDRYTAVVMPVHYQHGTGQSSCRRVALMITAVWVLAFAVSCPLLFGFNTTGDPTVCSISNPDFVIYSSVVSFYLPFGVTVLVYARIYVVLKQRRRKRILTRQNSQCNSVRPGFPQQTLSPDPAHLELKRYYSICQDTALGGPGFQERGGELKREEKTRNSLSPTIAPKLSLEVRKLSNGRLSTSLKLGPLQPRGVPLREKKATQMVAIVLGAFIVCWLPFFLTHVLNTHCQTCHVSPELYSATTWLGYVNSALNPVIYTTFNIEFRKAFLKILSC
The experiment in a line: Measurement of affinity for dopamine D3 receptor ([3H]spiperone binding). The settings on record: [3H]spiperone 0.8 nM, CHO cell line, 60 min at 27° C. The method, then: as §2, §3

For series [6], the target named is T4, 5-HT1A receptor (Homo sapiens, UniProt P08908).
T4 sequence (P08908 1-422): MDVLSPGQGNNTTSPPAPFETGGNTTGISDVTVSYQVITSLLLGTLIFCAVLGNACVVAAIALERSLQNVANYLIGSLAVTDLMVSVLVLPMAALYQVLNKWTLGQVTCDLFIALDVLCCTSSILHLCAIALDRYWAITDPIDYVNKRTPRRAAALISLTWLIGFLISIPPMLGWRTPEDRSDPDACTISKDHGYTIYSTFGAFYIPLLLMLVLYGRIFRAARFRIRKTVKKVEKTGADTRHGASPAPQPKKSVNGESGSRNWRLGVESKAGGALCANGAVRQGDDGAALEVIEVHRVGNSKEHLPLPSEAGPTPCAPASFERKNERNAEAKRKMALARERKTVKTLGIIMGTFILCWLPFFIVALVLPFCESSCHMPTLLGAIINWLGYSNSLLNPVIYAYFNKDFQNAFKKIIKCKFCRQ
The experiment in a line: Serotonin receptor binding experiment, 5-HT1A. Also on record: species or system human or rat. The settings on record: [3H]8-OH-DPAT 0.5 nM, 60 min at 27° C.; read-out: Receptor affinity (IC50, nM) 5-HT1A. The method, then:
(§4) The measurement of affinity for serotonin 5-HT receptor family was performed according to the experimental conditions as specified in Table 2 below using the method same as in Experimental Example 1 above.

The target in series [7] is 5-HT2A receptor (Homo sapiens, UniProt P28223). The experiment in a line: Serotonin receptor binding experiment, 5-HT2A. More on the design: species or system human or rat. The settings on record: [3H]ketanserin 1 nM, 15 min at 37° C.; read-out: Receptor affinity (IC50, nM) 5-HT2A. Here is the method:
as §4

In series [8] the target is T5, 5-HT2C receptor (Homo sapiens, UniProt P28335).
T5 sequence (P28335 33-458): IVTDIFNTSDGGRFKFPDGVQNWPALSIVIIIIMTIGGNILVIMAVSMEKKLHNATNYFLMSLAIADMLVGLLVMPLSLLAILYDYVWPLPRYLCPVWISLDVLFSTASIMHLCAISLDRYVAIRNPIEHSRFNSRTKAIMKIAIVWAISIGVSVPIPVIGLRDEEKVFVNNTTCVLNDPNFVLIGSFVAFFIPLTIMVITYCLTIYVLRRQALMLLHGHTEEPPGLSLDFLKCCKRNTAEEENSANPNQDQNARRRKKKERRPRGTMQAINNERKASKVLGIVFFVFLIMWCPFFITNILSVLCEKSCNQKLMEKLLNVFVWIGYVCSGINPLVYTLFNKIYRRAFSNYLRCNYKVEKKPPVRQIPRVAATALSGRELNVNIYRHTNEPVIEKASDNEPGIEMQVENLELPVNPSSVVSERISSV
The experiment in a line: Serotonin receptor binding experiment, 5-HT2C. More on the design: species or system human or rat. The settings on record: [3H]Mesulergine 1 nM, 30 min at 37° C.; read-out: Receptor affinity (IC50, nM) 5-HT2C. The method, then:
as §4

The target of series [9] is 5-HT6 receptor (Homo sapiens, UniProt P50406). As to the kind of experiment: Serotonin receptor binding experiment, 5-HT6. More on the design: species or system human or rat. The settings on record: [3H]LSD 1.8 nM, 60 min at 37° C.; read-out: Receptor affinity (IC50, nM) 5-HT6. The method, then: as §4
Chain of 5-HT6 receptor (P50406 whole entry): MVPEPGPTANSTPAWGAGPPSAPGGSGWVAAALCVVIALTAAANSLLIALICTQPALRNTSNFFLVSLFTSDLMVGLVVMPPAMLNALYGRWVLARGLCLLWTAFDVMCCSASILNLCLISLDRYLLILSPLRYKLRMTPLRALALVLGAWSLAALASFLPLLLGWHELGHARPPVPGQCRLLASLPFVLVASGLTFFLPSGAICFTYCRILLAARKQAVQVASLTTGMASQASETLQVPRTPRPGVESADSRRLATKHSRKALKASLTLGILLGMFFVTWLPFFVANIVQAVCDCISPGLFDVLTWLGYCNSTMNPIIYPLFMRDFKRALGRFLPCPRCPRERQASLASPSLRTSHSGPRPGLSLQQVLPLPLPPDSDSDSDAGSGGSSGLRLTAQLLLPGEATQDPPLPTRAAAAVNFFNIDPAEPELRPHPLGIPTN
The target of series [10] is 5-HT7 receptor (Homo sapiens, UniProt P34969). As to the kind of experiment: Serotonin receptor binding experiment, 5-HT7. More on the design: species or system human or rat. The settings on record: [3H]LSD 3 nM, 90 min at 27° C.; read-out: Receptor affinity (IC50, nM) 5-HT7. Here is the method: as §4
Chain of 5-HT7 receptor (P34969 whole entry): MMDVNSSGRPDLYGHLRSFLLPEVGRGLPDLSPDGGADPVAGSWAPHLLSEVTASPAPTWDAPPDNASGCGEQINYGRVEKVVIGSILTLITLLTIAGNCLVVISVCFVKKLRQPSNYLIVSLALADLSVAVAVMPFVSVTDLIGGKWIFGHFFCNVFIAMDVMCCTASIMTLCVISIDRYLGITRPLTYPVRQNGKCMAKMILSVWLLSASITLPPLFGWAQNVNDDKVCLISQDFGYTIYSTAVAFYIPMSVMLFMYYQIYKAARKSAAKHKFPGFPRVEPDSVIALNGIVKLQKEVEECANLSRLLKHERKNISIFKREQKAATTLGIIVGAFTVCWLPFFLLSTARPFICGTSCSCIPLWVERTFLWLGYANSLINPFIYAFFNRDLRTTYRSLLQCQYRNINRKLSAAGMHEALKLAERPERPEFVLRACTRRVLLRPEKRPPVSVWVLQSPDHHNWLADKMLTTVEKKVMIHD
The nature of series [11]: Rotarod deficit in mice. Type of series: in vivo. Conditions: mouse, in vivo; mice, ip, rod rotating at 6 rpm, 30-120 min after administration. The method, then: as §1

Chain of 5-HT2A receptor (P28223 whole entry): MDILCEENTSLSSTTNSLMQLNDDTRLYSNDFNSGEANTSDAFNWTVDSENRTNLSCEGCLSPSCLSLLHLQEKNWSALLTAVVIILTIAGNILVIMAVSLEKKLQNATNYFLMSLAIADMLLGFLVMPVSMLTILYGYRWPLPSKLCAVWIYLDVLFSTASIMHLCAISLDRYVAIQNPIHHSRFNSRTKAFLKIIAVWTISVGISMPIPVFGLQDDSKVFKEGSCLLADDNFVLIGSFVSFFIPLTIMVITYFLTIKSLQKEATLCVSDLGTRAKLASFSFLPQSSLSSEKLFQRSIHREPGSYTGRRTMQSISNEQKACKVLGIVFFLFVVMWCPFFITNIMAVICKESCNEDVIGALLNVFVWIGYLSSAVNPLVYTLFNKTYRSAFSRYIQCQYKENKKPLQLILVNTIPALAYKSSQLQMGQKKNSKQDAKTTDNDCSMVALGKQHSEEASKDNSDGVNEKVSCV

For the compound `CCCc1cc(CCCN2CCN(c3ccc(Cl)cc3)CC2)n(-c2ccccc2)n1` [Compound 157, 1-(4-chlorophenyl)-4-(3-(1-phenyl-3-propyl-1H-pyrazol-5-yl)propyl)piperazine], in series [1], the ED50 was 8.8 to 14.5 mg/kg and the “Inhibitory effects on apomorphine-induced climbing behavior ED50 (mg/kg, ip)” value is given as 14.5 mg/kg. Besides, the “rotarod deficit TD50 as times of ED50 for antipsychotic efficacy” value in series [2] (mouse, in vivo) is given as 2.2-5 times.
Turning to `CCCc1cc(CCCN2CCN(c3ccc(Cl)c(Cl)c3)CC2)n(-c2ccccc2)n1` [Compound 163, 1-(3,4-dichlorophenyl)-4-(3-(1-phenyl-3-propyl-1H-pyrazol-5-yl)propyl)piperazine], the IC50 amounted to 7.7 nM in series [3]; 1060 nM in series [4] ([3H]spiperone 0.5 nM, CHO cell line, 60 min at 27° C.); 420 nM in series [5]; 494 nM in series [6]; 45 nM in series [7]; 558 nM in [8]. In addition, the results for the concentration for half-maximal inhibition (IC50) in series [9] and in [10] were 617 nM and 651 nM, respectively. Further, the “affinity for D2 receptors (in words)” value in series [4] is “extremely poor affinity”.
For the compound `CN1CCN(C2=Nc3cc(Cl)ccc3Nc3ccccc32)CC1` [clozapine, reference compound], the ED50 in series [1] was found to be 4 mg/kg. The compound also showed a TD50 in series [11] of 3.9 mg/kg. For the same compound, in [2] (mice), the “rotarod deficit TD50 as times of ED50 for antipsychotic efficacy” value is given as “almost same”.
